Laboratory results taken from PubChem BioAssay (NCI).
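96-well plates; 48 h exposure; 5 concentrations. Endpoints by linear interpolation between flanking doses. Not reached: highest tested concentration assigned. Abbreviation: GI50, concentration required for 50% inhibition of growth. TGI is the concentration that stops growth completely.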

Assays:
Experiment in all cases: NCI anticancer screen, dose series, 48 h
[1] = test system: HCT-15 colon
[2] = test system: PC-3 prostate
[3] = test system: IGROV1 ovarian
[4] = test system: OVCAR-4 ovarian
[5] = test system: HL-60(TB) leukemia
[6] = test system: OVCAR-3 ovarian
[7] = test system: MDA-MB-231 breast
[8] = test system: RXF 393 renal
[9] = test system: EKVX NSCLC
[10] = test system: SK-MEL-28 melanoma
[11] = test system: BT-549 breast
[12] = test system: SK-MEL-2 melanoma
[13] = test system: CAKI-1 renal
[14] = test system: HCT-116 colon
[15] = test system: UACC-257 melanoma
[16] = test system: ACHN renal
[17] = test system: UACC-62 melanoma
[18] = test system: LOX IMVI melanoma
[19] = test system: OVCAR-8 ovarian
[20] = test system: T-47D breast
[21] = test system: NCI-H23 lung
[22] = test system: SK-MEL-5 melanoma
[23] = test system: OVCAR-5 ovarian
[24] = test system: NCI-H460 lung
[25] = test system: NCI-H522 lung
[26] = test system: SF-268 CNS
[27] = test system: A498 renal
[28] = test system: HS 578T breast
[29] = test system: SN12C renal
[30] = test system: MCF7 breast
[31] = test system: HOP-92 NSCLC
[32] = test system: DU-145 prostate
[33] = test system: NCI/ADR-RES ovarian
[34] = test system: MALME-3M melanoma
[35] = test system: SF-539 CNS
[36] = test system: SR leukemia
[37] = test system: COLO 205 colon
[38] = test system: SNB-75 CNS
[39] = test system: MDA-MB-435
[40] = test system: SNB-19 CNS
[41] = test system: UO-31 renal
[42] = test system: HT29 colon
[43] = test system: 786-0 renal
[44] = test system: A549 NSCLC
[45] = test system: MOLT-4 leukemia
[46] = test system: K-562 leukemia
[47] = test system: SF-295 CNS
[48] = test system: CCRF-CEM leukemia
[49] = test system: NCI-H226 lung
[50] = test system: RPMI-8226 leukemia
[51] = test system: M14 melanoma
[52] = test system: U251 CNS
[53] = test system: TK-10 renal
[54] = test system: SW-620 colon
[55] = test system: KM12 colon
[56] = test system: SK-OV-3 ovarian
[57] = test system: HOP-62 NSCLC

Nn1c(-c2ccc(Cl)cc2)nc2c(-c3ccc(Cl)cc3)nc3ccc(Cl)cc3c2c1=O
GI50 [1]: > 100 µM | TGI [1]: > 100 µM | GI50 [2]: 60.7 µM | TGI [2]: > 100 µM | GI50 [3]: 4.01 µM | TGI [3]: 32.8 µM | GI50 [4]: 3.55 µM | TGI [4]: 15.1 µM | GI50 [5]: 2.76 µM | TGI [5]: > 100 µM | GI50 [6]: 2.7 µM | TGI [6]: 8.68 µM | GI50 [7]: 14.1 µM | TGI [7]: 62.5 µM | GI50 [8]: 11.8 µM | TGI [8]: 30.9 µM | GI50 [9]: 5.86 µM | TGI [9]: > 100 µM | GI50 [10]: 49.6 µM | TGI [10]: > 100 µM | GI50 [11]: 14.5 µM | TGI [11]: 60.2 µM | GI50 [12]: 25.2 µM | TGI [12]: > 100 µM | GI50 [13]: 3.97 µM | TGI [13]: 22 µM | GI50 [14]: 5.79 µM | TGI [14]: > 100 µM | GI50 [15]: 25.2 µM | TGI [15]: > 100 µM | GI50 [16]: 5.42 µM | TGI [16]: 25.5 µM | GI50 [17]: 32.2 µM | TGI [17]: > 100 µM | GI50 [18]: 5.77 µM | TGI [18]: 32.9 µM | GI50 [19]: 7.58 µM | TGI [19]: 95.2 µM | GI50 [20]: 9.3 µM | TGI [20]: 67.2 µM | GI50 [21]: 33 µM | TGI [21]: > 100 µM | GI50 [22]: 56.6 µM | TGI [22]: > 100 µM | GI50 [23]: > 100 µM | TGI [23]: > 100 µM | GI50 [24]: 3.36 µM | TGI [24]: > 100 µM | GI50 [25]: 20.9 µM | TGI [25]: > 100 µM | GI50 [26]: 5.18 µM | TGI [26]: 72.3 µM | GI50 [27]: 36 µM | TGI [27]: 75.7 µM | GI50 [28]: 12.1 µM | TGI [28]: 85 µM | GI50 [29]: 7.46 µM | TGI [29]: > 100 µM | GI50 [30]: 4.1 µM | TGI [30]: > 100 µM | GI50 [31]: 13.6 µM | TGI [31]: 31.6 µM | GI50 [32]: 4.96 µM | TGI [32]: > 100 µM | GI50 [33]: 48.3 µM | TGI [33]: > 100 µM | GI50 [34]: 21.3 µM | TGI [34]: 65.4 µM | GI50 [35]: 10.4 µM | TGI [35]: 36.8 µM | GI50 [36]: 4.08 µM | TGI [36]: 20.2 µM | GI50 [37]: 19.5 µM | TGI [37]: > 100 µM | GI50 [38]: 4.79 µM | TGI [38]: 19.5 µM | GI50 [39]: > 100 µM | TGI [39]: > 100 µM | GI50 [40]: 9.06 µM | TGI [40]: 47.7 µM | GI50 [41]: 16.9 µM | TGI [41]: > 100 µM | GI50 [42]: > 100 µM | TGI [42]: > 100 µM | GI50 [43]: 16.4 µM | TGI [43]: 54.3 µM | GI50 [44]: 4.8 µM | TGI [44]: > 100 µM | GI50 [45]: 4.67 µM | TGI [45]: > 100 µM | GI50 [46]: 11.4 µM | TGI [46]: 48.5 µM | GI50 [47]: 13.3 µM | TGI [47]: 34.4 µM | TGI [48]: 1.11 µM | GI50 [49]: 40.8 µM | TGI [49]: > 100 µM | GI50 [50]: 4.14 µM | TGI [50]: 26.3 µM | GI50 [51]: 15.1 µM | TGI [51]: > 100 µM | GI50 [52]: 3.07 µM | TGI [52]: 12.7 µM | GI50 [53]: 22.4 µM | TGI [53]: 58.4 µM | GI50 [54]: 6.06 µM | TGI [54]: > 100 µM | GI50 [55]: > 100 µM | TGI [55]: > 100 µM | GI50 [56]: 14.5 µM | TGI [56]: 40.3 µM | GI50 [57]: 22.4 µM | TGI [57]: 57.7 µM
